According to US7547676B2, “Antagonist peptides to the C5A chemotactic function of vitamin D binding protein” (The Research Foundation of State University of New York, priority 2004, dated 2009):

Tests used:
neutrophils [1] = assay: Neutrophil chemotaxis assay, C5a co-chemotactic activity of DBP; format: cell-based, human
From the text: Isolation of human neutrophils Neutrophils, serum, and plasma were isolated from the venous blood of healthy, medication-free, paid volunteers who gave informed consent. The Institutional Review Board of Stony Brook University approved this procedure. These procedures have been described in detail previously (Kew et al., 1995a).
Neutrophil chemotaxis assay Cell movement was quantitated using a 48 well microchemotaxis chamber (Neuroprobe, Cabin John, Md.) and 5.0 μm pore size cellulose nitrate filters (purchased from Neuroprobe) as previously described (Kew et al., 1995a). Cell suspensions and chemotactic factors were prepared and/or diluted in the chemotaxis assay buffer (Hank's balanced salt solution supplemented with 10 mM HEPES (pH 7.4) and 1% bovine serum albumin). Cell movement was quantitated microscopically by measuring the distance in microns (μm) that the leading front of cells had migrated into the filter according to the method described by Zigmond and Hirsch (1973). In each experiment, five fields per duplicate filter were measured at 400× magnification.

neutrophils [2] = assay: Quantitative binding of radioiodinated DBP to neutrophils; parameters: species or system human; conditions: DBP saturated with the ligand; 100 nM 125I-DBP, 37° C. 60 min
Method: Quantitative binding of radioiodinated DBP to neutrophils Purified DBP (200-400 μg) was iodinated using Na-^125I (Dupont-NEN, Wilmington, Del.) as previously described (DiMartino and Kew, 1999). Neutrophils (10^7 cells/sample) were incubated with 100 nM ^125I-DBP in Hank's balanced salt solution (HBSS) containing 0.1% bovine serum albumin (BSA) (assay buffer) in a total volume of 100 μl. Samples were incubated at 37° C. for 60 min after which cells were placed on ice and then washed twice with ice-cold assay buffer (1.0 ml each) and centrifuged for 7 min at 200× g at 2° C. The cell pellets were then counted for total radioactivity in a gamma counter. All samples were assayed in triplicate or quadruplicate.

[3] = tested on: Alkaline phosphatase activity on the plasma membrane of viable neutrophils; assay: Neutrophil alkaline phosphatase assay (DiFMUP); format: cell-based, human; conditions: 5×10^6 cells pretreated with 10 nM 1,25(OH)2D3 or 10 μM SOV; untreated 11,107±1335 units
Method: Neutrophil alkaline phosphatase assay Alkaline phosphatase activity on the plasma membrane of viable neutrophils was measured using the fluorescent substrate 6,8-difluoro-4-methylumbelliferyl phosphate (DiFMUP) and the EnzChek Phosphatase Assay Kit (Molecular Probes, Eugene, Oreg.). Neutrophils (5×10^6 cells) were suspended in 50 μl of 0.1M sodium acetate (pH 5.0) and were immediately added to microtiter plates containing 50 μl of 0.2mM DiFMUP substrate and incubated for 5 min at 22° C. in the dark. A standard curve was generated using known amounts of the fluorescent compound 6,8-difluoro-7-hydroxy-4-methylcoumarin. Fluorescence was measured at 358 nm excitation and 455 nm emission using a SpectraMax M2 microtiter plate reader (Molecular Devices, Sunnydale, Calif.).

U937-C5aR cells [4] = assay: Chemotaxis assay, U937-C5aR cells; format: cell-based, human; conditions: Example 6
Method: Neutrophils (4×10^6/ml) or U937-C5aR cells (6×10^6/ml) in chemotaxis buffer were treated for 15 min at 22° C. with 20 μg/ml of anti-CD36, anti-CD47 or anti-gC1qR. Cells were then allowed to respond to either 2.5% complement-activated serum (ZAS) or 1 nM purified C5a for 120 min (FIG. 14A. U937-C5aR cells) or 25 min (Panel B. neutrophils) at 37° C. Numbers represent mean±SEM, n=4.
U937 cells were originally obtained from the American Type Culture Collection and transfected with either the human C5a receptor or the empty plasmid vector as detailed previously (16). U937 cells were cultured at 37° C., 5% CO2 in RPMI 1640 containing 10% FBS (HyClone) and […] active G418 (Invitrogen Life Technologies) and maintained at a density between 2×10^5 and 1.5×10^6/ml.
Serum and citrated plasma (1 ml each) were incubated for 1 h at 37° C. with 10 mg of zymosan. Particulate matter was removed by centrifugation (15,000× g) for 5 min at 4° C. using a microfuge. Samples were then aliquoted and frozen at −20° C.
Cell movement was quantitated using a 48-well microchemotaxis chamber (NeuroProbe) and 5.0-μm pore size cellulose nitrate filters (purchased from NeuroProbe) as previously described (13). Cell movement was quantitated microscopically by measuring the distance in micrometers that the leading front of cells had migrated into the filter according to the method described by Zigmond and Hirsch (17). In each experiment, five fields per duplicate filter were measured at ×400 magnification. The value of the background controls for random cell movement (cells responding to buffer) has been subtracted in all cases so that the data are presented as net movement in micrometers.

[5] = tested on: differentiated HL-60 cells; assay: Chemotaxis assay, differentiated HL-60 cells responding to C5a, C5a plus DBP or ZAS; format: cell-based, Human; conditions: differentiated HL-60 cells; 100 pM C5a (FIG. 1: 25-200 pM) plus 50 nM of indicated DBP, 60 min at 37° C
Method: Cells (6×10^6/ml) were resuspended in chemotaxis buffer and treated either with chemotaxis buffer (control), 1 μM of peptide 1 (130-152), or 1 μM of peptide 2 (150-172) for 30 min at room temperature. The chemotactic response of differentiated HL-60 cells to 100 pM C5a alone, C5a plus 50 nM full-length natural DBP or 1% zymosan-activated serum (ZAS) was measured for 60 minutes at 37° C. Numbers represent net cell movement in 60 min, mean±SEM of 3 experiments.
(§1) Cells and cell culture: Human promyelocytic cell line HL-60 was obtained from ATCC (Rockville, Md.) and cultured in RPMI 1640 medium supplemented with 10% FBS. Differentiation of HL-60 cells was initiated with 250 μM Bt2cAMP for 48 hours.
Chemotaxis assay. Chemotaxis was performed as described previously (see Kew, R. R. et al., J. Leukoc. Biol. 58, 55-58 (1995)). In brief, 35 μl of C5a (0.01 to 1 nM) in the chemotaxis buffer (HBSS with 1% BSA, 10 mM HEPES) were placed in duplicate in the lower chamber of a 48-well chamber (Neuroprobe, Md.). The lower compartments were covered with a 5 μm pore cellulose nitrate filter and then 50 μl of the cell suspension (2.5×10^5/well) was pipetted into the upper compartments. The chemotactic chamber was incubated for 1 hour at 37° C. in a humidified incubator with 5% CO2. Following incubation, the filter was fixed, stained and mounted on a microscope slide. Cell movement was measured as the distance in microns that the leading front of the cells had migrated into the filter (see Zigmond, S. et al., J. Exp. Med. 137, 387 (1973)).

[6] = tested on: differentiated HL-60 cells; assay: Ligand-induced calcium mobilization (Fluo-3 AM) in differentiated HL-60 cells; format: cell-based, Human; conditions: differentiated HL-60 cells incubated 30 min with 50 nM of indicated DBP, then C5a
Method: as §1
Ligand-induced calcium mobilization. Calcium mobilization studies were performed using the Fluo-3 AM probe as described previously (see Merritt, J. E. et al., Biochem. J. 269, 513-519 (1990)). Differentiated HL-60 cells (1×10^7 cells/ml) were resuspended in HBSS-1% BSA containing 2 μM Fluo-3 AM (Molecular Probes, Eugene, Oreg.) and incubated at 37° C. for 40 minutes. Cells incubated without the dye were used as a control to measure autofluorescence (Fmin). Following the dye uptake, cells were washed twice then suspended at 5×10^6 cells/ml in HBSS containing 1% BSA. Half of the cell suspension was treated with 50 nM DBP for 30 min at room temperature, the other half served as the untreated control. For each measurement, 400 μl of cell suspension (with or without DBP) was added to a cuvette and stimulated with various concentrations of purified C5a at room temperature (22-24° C.). Fluorescence was then measured immediately using a Perkin-Elmer LS-5 fluorometer at 505 nm excitation, 526 nm emission for Fluo-3 AM. Fmax was measured by treating labeled cells with 60 μM digitonin. Intracellular free calcium concentrations were calculated using the following formula: (Ca^2+)=Kd (F−Fmin)/(Fmax−F), where Kd=325 nM for Fluo-3 according to manufacturer (Molecular Probes).

U937-C5aR cells [7] = assay: C5a-induced intracellular calcium mobilization in U937-C5aR cells; format: cell-based, human; conditions: FIG. 11B, 12; 0.5 μM DBP peptide, 50 nM DBP, 0.1 nM C5a
Method: FIG. 11A and FIG. 11B show the effect of DBP on C5a-induced intracellular calcium mobilization in U937-C5aR cells. U937-C5aR cells (10^7 cells/ml) were resuspended in HBSS-1% BSA containing 2 μM Fluo-3 AM and incubated at 37° C. for 40 minutes. Cells incubated without the dye were used as a control to measure autofluorescence (Fmin). Following the dye uptake, cells were washed twice then suspended at 5×10^6 cells/ml in HBSS containing 1% BSA. For the pretreatment experiments, cells were incubated for 30 min at 22° C. with 50 nM DBP or 0.5 μM DBP peptide 1 (p1). For each measurement, 400 μl of cell suspension was added to a cuvette and stimulated with the indicated concentration of C5a (FIG. 11A) or 0.1 nM C5a (FIG. 11B). Fluorescence was then measured immediately using a Perkin-Elmer LS-5 fluorometer at 505 nm excitation, 526 nm emission for Fluo-3 AM. Fmax was measured by treating labeled cells with 60 μM digitonin. Intracellular free calcium concentrations were calculated using the following formula: (Ca^2+)=Kd (F−Fmin)/(Fmax−F), where Kd=325 nM for Fluo-3 according to manufacturer (Molecular Probes). Data are presented as mean±SEM (n=4-6) of the increase in intracellular calcium concentration.
U937-C5aR cells (10^7 cells/ml) were resuspended in HBSS-1% BSA containing 2 μM Fluo-3 AM and incubated at 37° C. for 40 minutes. Cells incubated without the dye were used as a control to measure autofluorescence (Fmin). Following the dye uptake, cells were washed twice then suspended at 5×10^6 cells/ml in HBSS containing 1% BSA. Cells were incubated for 30 min at 22° C. with either 50 nM DBP or 0.5 μM DBP peptide. For each measurement, 400 μl of cell suspension was added to a cuvette and stimulated with 0.1 nM purified C5a. Fluorescence was then measured immediately using a Perkin-Elmer LS-5 fluorometer at 505 nm excitation, 526 nm emission for Fluo-3 AM. Fmax was measured by treating labeled cells with 60 μM digitonin. Intracellular free calcium concentrations were calculated using the following formula: (Ca2+)=Kd (F−Fmin)/(Fmax−F), where Kd=325 nM for Fluo-3 according to manufacturer (Molecular Probes)

Compound: C=C1/C(=C\C=C2/CCC[C@]3(C)[C@@H]([C@H](C)CCCC(C)(C)O)CC[C@@H]23)C[C@@H](O)C[C@@H]1O [1,25(OH)2D3, 1,25(OH)2 Vitamin D3]
- neutrophil chemotaxis to optimal concentrations of C5a, formyl peptide, LTB4 or CXCL8 (IL-8) (neutrophils [1]; 10 nM bound to DBP): does not alter neutrophil chemotaxis
- effect on co-chemotactic activity of DBP (neutrophil chemotaxis toward C5a) (neutrophils [1]; ligand bound to DBP, 1,25(OH)2D3 100 nM): completely eliminated the co-chemotactic effect
- effect on binding of 125I-DBP to neutrophils (neutrophils [2]): did not alter DBP binding to neutrophils
- neutrophil AP activity [3]: not significantly altered

Compound: [O-][Cl+2]([O-])O [chlorate, sodium chlorate]
- U937-C5aR chemotaxis to C-activated plasma (U937-C5aR cells [4]; 2.5% C-activated plasma): not
- U937-C5aR chemotaxis to C-activated serum (U937-C5aR cells [4]; 2.5% C-activated serum): significantly reduces
- U937-C5aR chemotaxis to 1 nM purified C5a (net movement) (U937-C5aR cells [4]; treated cells, DBP-independent): 56+/−4.8 μm/120 min

Compound: (1-112): truncated version of DBP domain I expressed in E. coli (LERGRDYEKNKVCKEFSHLGKEDFTSLSLVLYSRKFPSGT)
- enhancement of C5a-mediated chemotaxis (net cell movement) [5]: lack enhancing activity
- enhancement of intracellular Ca2+ flux in response to C5a [6]: lack enhancing activity

Compound: (1-125): truncated version of DBP domain I expressed in E. coli (LERGRDYEKNKVCKEFSHLGKEDFTSLSLVLYSRKFPSGT)
- enhancement of C5a-mediated chemotaxis (net cell movement) [5]: lack enhancing activity
- enhancement of intracellular Ca2+ flux in response to C5a [6]: lack enhancing activity

Compound: (1-150): truncated version of DBP domain I expressed in E. coli (LERGRDYEKNKVCKEFSHLGKEDFTSLSLVLYSRKFPSGT)
- enhancement of C5a-mediated chemotaxis (net cell movement) [5]: almost the same level of activity as full-length natural DBP
- enhancement of intracellular Ca2+ flux in response to C5a [6]: almost the same level of activity as full-length natural DBP

Compound: (1-175): truncated version of DBP domain I expressed in E. coli (LERGRDYEKNKVCKEFSHLGKEDFTSLSLVLYSRKFPSGT)
- enhancement of C5a-mediated chemotaxis (net cell movement) [5]: almost the same level of activity as full-length natural DBP
- enhancement of intracellular Ca2+ flux in response to C5a [6]: almost the same level of activity as full-length natural DBP

Compound: EAFRKDPKEYAN [peptide 3, DBP residues 130-141]
- block of the DBP-enhanced C5a calcium signal (U937-C5aR cells [7]): partially block

Compound: Vitamin D
- effect on binding of 125I-DBP to neutrophils (neutrophils [2]): does not alter its ability to bind to neutrophils

Compound: domain I & II: truncated reDBP, residues 1-378 (LERGRDYEKNKVCKEFSHLGKEDFTSLSLVLYSRKFPSGT)
- enhancement of C5a-mediated chemotaxis (net cell movement) [5]: significantly enhanced
- enhancement of intracellular Ca2+ flux in response to C5a [6]: significantly enhanced

Compound: domain I: truncated reDBP, residues 1-191 (EAFRKDPKEYANQFMWEYST)
- enhancement of C5a-mediated chemotaxis (net cell movement) [5]: significantly enhanced
- enhancement of intracellular Ca2+ flux in response to C5a [6]: significantly enhanced

Compound: peptide 5: DBP residues #135-146, printed as SEQ ID NO: 10; residues match the sequence of SEQ ID NO: 9 (NQFMWEYSTNYG)
- block of the DBP-enhanced C5a calcium signal (U937-C5aR cells [7]): partially block
